In patent publication US8048458B2, “Saponin and preservative compositions for reduction of protozoa” (Sartec Corporation, priority 2006, dated 2011):

Tested on: protozoa
Experiment: In vitro treatment of washed rumen protozoa: cell count and Live/Dead stain, % killed
Type: cell-based, rumen protozoa from a Holstein-Friesian cow
Settings: Yucca 1000 ppm where + Y, 2 hours, 39° C.; for % Viable: Live/Dead BacLight Stain; for % Killed by Treatment: standardized to blank
Protocol: Rumen contents were obtained from a rumen cannulated Holstein-Friesian cow 10 hours post-prandial. […] Sedimented protozoa were aspirated to fresh CBD and washed twice with warm CBD. Protozoa were resuspended in warm CBD.
Crude yucca was diluted in water to the desired concentration. […] Ethoxyquin was diluted in absolute ethanol to obtain concentrations which correspond to field concentrations of 0.5 g, 1.0 g and 1.5 g.
Experimental treatments were as follows:
Individual treatment tubes were flushed with carbon dioxide prior to sealing and placement at 39° C. for 2 hours with occasional mixing by tube inversion.
Total number of protozoa present in each treatment was determined on the formalin fixed preparation and on the corresponding sample the percentage of live protozoa as indicated by the Live/Dead® BacLight Stain was also determined.
[…] was determined by multiplying the percent of live protozoa by the total protozoa present in each treatment. […] The number of viable protozoa for each treatment was then subtracted from the number of viable protozoa present in the blank (control) treatment. The difference is the number killed by the corresponding treatment. The treatments were then standardized to the blank by calculating a percentage killed by treatment.

[1] = EQ 51.6 ug in vitro (0.5 g/head in vivo)
[2] = EQ 103 ug in vitro (1 g/head in vivo)
[3] = EQ 154 ug in vitro (1.5 g/head in vivo)

CCOc1ccc2c(c1)C(C)=CC(C)(C)N2 [EQ, 1,2-dihydro-6-ethoxy-2,2,4-trimethylquinoline]
# Live [1]: 7.13E+04
% Killed by Treatment using Ethanol control as Baseline [1]: 23%
Cell count [1]: 8.80E+04
% Viable [1]: 81%
% Killed by Treatment [1]: 18%
# Live [2]: 7.35E+04
% Killed by Treatment using Ethanol control as Baseline [2]: 20%
Cell count [2]: 9.30E+04
% Viable [2]: 79%
% Killed by Treatment [2]: 16%
# Live [3]: 5.40E+04
% Killed by Treatment using Ethanol control as Baseline [3]: 41%
Cell count [3]: 9.00E+04
% Viable [3]: 60%
% Killed by Treatment [3]: 38%
